# Measured values published in US8802597B2, “Herbicidal pyrimidines” (E I du Pont de Nemours and Company, priority 2003, dated 2014).
# Columns and labels:
# Assay type in all cases: in vivo
# [1] = tested on: lambsquarters (CHEAL; Chenopodium album); assay: Test I mixtures of compound 9 with metsulfuron-methyl and chlorsulfuron-metsulfuron-methyl (5:1); details: applied alone
# From the text: (§1) This test evaluated the effect of mixtures of compound 9 with metsulfuron-methyl and with a 5:1 by weight combination of chlorsulfuron and metsulfuron-methyl on several plant species. Seeds of test plants consisting of wheat (TRZAW; Triticum aestivum), wild buckwheat, (POLCO; Polygonum convolvulus), redroot pigweed (AMARE; Amaranthus retroflexus), wild mustard (SINAR; Sinapis arvensis), catchweed bedstraw (GALAP; Galium aparine), Russian thistle (SASKR; Salsola kali), common chickweed (STEME; Stellaria media), kochia (KCHSC; Kochia scoparia), and lambsquarters (CHEAL; Chenopodium album) were planted into a blend of loam soil and sand. Plants were grown in a greenhouse using supplemental lighting to maintain a photoperiod of about 14 hours; daytime and nighttime temperatures were about 23° C. and 16° C., respectively. Balanced fertilizer was applied through the watering system. The plants were grown for 10 to 23 days so that at time of treatment the plants ranged from 2- to 8-leaf stage. Treatments consisted of Compound 9, metsulfuron-methyl, and chlorsulfuron-metsulfuron-methyl (5:1) alone and in combination. The treatments were formulated in a non-phytotoxic solvent mixture which included a surfactant and applied as a foliage spray using a volume of 280-458 L/ha. Each treatment was replicated three times. […] Treated plants and controls were maintained in the greenhouse and watered as needed with care to not wet the foliage for the first 24 hours after treatment. The effects on the plants approximately 17 days after treatment were visually compared to untreated controls. Plant response ratings were calculated as the means of the three replicates, based on a scale of 0 to 100 where 0 is no effect and 100 is complete control. Colby's Equation was used to determine the herbicidal effects expected from the mixtures.
# [2] = tested on: kochia (KCHSC; Kochia scoparia); assay: as above; details: applied alone
# From the text: as §1
# [3] = tested on: wild mustard (SINAR; Sinapis arvensis); assay: as above; details: applied alone
# From the text: as §1
# [4] = tested on: wild buckwheat (POLCO; Polygonum convolvulus); assay: as above; details: applied alone
# From the text: as §1
# [5] = tested on: catchweed bedstraw (GALAP; Galium aparine); assay: as above; details: applied alone
# From the text: as §1
# [6] = tested on: redroot pigweed (AMARE; Amaranthus retroflexus); assay: as above; details: applied alone
# From the text: as §1
# [7] = tested on: wheat (TRZAW; Triticum aestivum); assay: as above; details: applied alone
# From the text: as §1
# [8] = tested on: Russian thistle (SASKR; Salsola kali); assay: as above; details: applied alone
# From the text: as §1
# [9] = tested on: large crabgrass (Digitaria sanguinalis); assay: Test F pre/postemergence
# From the text: (§2) Seeds or nutlets of plant species selected from (turf) bermudagrass (Cynodon dactylon), Kentucky bluegrass (Poa pratensis), bentgrass (Agrostis palustris), hard fescue (Festuca ovina), large crabgrass (Digitaria sanguinalis), goosegrass (Eleusine indica), dallisgrass (Paspalum dilatatum), annual bluegrass (Poa annua), common chickweed (Stellaria media), dandelion (Taraxacum officinale), white clover (Trifolium repens), and yellow nutsedge (Cyperus esculentus) were planted and treated preemergence with the test chemical formulated in a non-phytotoxic solvent mixture which included a surfactant.
# (§3) At the same time, plants selected from these crop and weed species were treated with postemergence applications of the test chemical formulated in the same manner. Plants ranged in height from 2 to 18 cm (1- to 4-leaf stage) for postemergence treatments. Treated plants and controls were maintained in a greenhouse for 12 to 14 days, after which time all species were compared to controls and visually evaluated. Plant response ratings, summarized in Table F, are based on a scale of 0 to 100 where 0 is no effect and 100 is complete control. A dash (-) response means no test result.
# [10] = tested on: common chickweed (Stellaria media); assay: Test F pre/postemergence
# From the text: as §2, §3
# [11] = tested on: hard fescue (Festuca ovina); assay: Test F pre/postemergence
# From the text: as §2, §3
# [12] = tested on: bentgrass (Agrostis palustris); assay: Test F pre/postemergence
# From the text: as §2, §3
# [13] = tested on: Kentucky bluegrass (Poa pratensis); assay: Test F pre/postemergence
# From the text: as §2, §3
# [14] = tested on: (turf) bermudagrass (Cynodon dactylon); assay: Test F pre/postemergence
# From the text: as §2, §3
smiles,measurement,setting,value
"COC(=O)c1nc(C2CC2)nc(N)c1Cl [Compound 9, methyl 6-amino-5-chloro-2-cyclopropyl-4-pyrimidinecarboxylate]",CHEAL Obsd. (observed effect),[1]; 4 g a.i./ha,45
same,CHEAL Obsd. (observed effect),[1]; 8 g a.i./ha,83
same,KCHSC Obsd. (observed effect),[2]; 4 g a.i./ha,70
same,KCHSC Obsd. (observed effect),[2]; 8 g a.i./ha,87
same,SINAR Obsd. (observed effect),[3]; 4 g a.i./ha,45
same,SINAR Obsd. (observed effect),[3]; 8 g a.i./ha,47
same,POLCO Obsd. (observed effect),[4]; 4 g a.i./ha,17
same,POLCO Obsd. (observed effect),[4]; 8 g a.i./ha,27
same,GALAP Obsd. (observed effect),[5]; 4 g a.i./ha,83
same,GALAP Obsd. (observed effect),[5]; 8 g a.i./ha,87
same,AMARE Obsd. (observed effect),[6]; 4 g a.i./ha,62
same,AMARE Obsd. (observed effect),[6]; 8 g a.i./ha,70
same,TRZAW Obsd. (observed effect),"[7]; Chlorsulfuron-Metsulfuron-Methyl series, 8 g a.i./ha",30
same,TRZAW Obsd. (observed effect),"[7]; Chlorsulfuron-Metsulfuron-Methyl series, 16 g a.i./ha",43
same,TRZAW Obsd. (observed effect),"[7]; Metsulfuron-Methyl series, 4 g a.i./ha",8
same,TRZAW Obsd. (observed effect),"[7]; Metsulfuron-Methyl series, 8 g a.i./ha",12
same,SASKR Obsd. (observed effect),[8]; 4 g a.i./ha,50
same,SASKR Obsd. (observed effect),[8]; 8 g a.i./ha,73
"CCOC(=O)c1nc(C2CC2)nc(N)c1Br [Compound 1, ethyl 6-amino-5-bromo-2-cyclopropyl-4-pyrimidinecarboxylate]",Plant response rating (0 to 100 scale),"[9]; Postemergence, 31 g ai/ha",0
same,Plant response rating (0 to 100 scale),"[9]; Postemergence, 62 g ai/ha",45
same,Plant response rating (0 to 100 scale),"[9]; Postemergence, 125 g ai/ha",70
same,Plant response rating (0 to 100 scale),"[9]; Postemergence, 250 g ai/ha",75
same,Plant response rating (0 to 100 scale),"[9]; Postemergence, 500 g ai/ha",90
same,Plant response rating (0 to 100 scale),"[9]; Preemergence, 31 g ai/ha",15
same,Plant response rating (0 to 100 scale),"[9]; Preemergence, 62 g ai/ha",40
same,Plant response rating (0 to 100 scale),"[9]; Preemergence, 125 g ai/ha",85
same,Plant response rating (0 to 100 scale),"[9]; Preemergence, 250 g ai/ha",95
same,Plant response rating (0 to 100 scale),"[9]; Preemergence, 500 g ai/ha",100
same,Plant response rating (0 to 100 scale),"[10]; Postemergence, 31 g ai/ha",0
same,Plant response rating (0 to 100 scale),"[10]; Postemergence, 62 g ai/ha",80
same,Plant response rating (0 to 100 scale),"[10]; Postemergence, 125 g ai/ha",85
same,Plant response rating (0 to 100 scale),"[10]; Postemergence, 250 g ai/ha",85
same,Plant response rating (0 to 100 scale),"[10]; Postemergence, 500 g ai/ha",100
same,Plant response rating (0 to 100 scale),"[10]; Preemergence, 31 g ai/ha",80
same,Plant response rating (0 to 100 scale),"[10]; Preemergence, 62 g ai/ha",100
same,Plant response rating (0 to 100 scale),"[10]; Preemergence, 125 g ai/ha",100
same,Plant response rating (0 to 100 scale),"[10]; Preemergence, 250 g ai/ha",100
same,Plant response rating (0 to 100 scale),"[10]; Preemergence, 500 g ai/ha",100
same,Plant response rating (0 to 100 scale),"[11]; Postemergence, 31 g ai/ha",0
same,Plant response rating (0 to 100 scale),"[11]; Postemergence, 62 g ai/ha",0
same,Plant response rating (0 to 100 scale),"[11]; Postemergence, 125 g ai/ha",0
same,Plant response rating (0 to 100 scale),"[11]; Postemergence, 250 g ai/ha",0
same,Plant response rating (0 to 100 scale),"[11]; Postemergence, 500 g ai/ha",0
same,Plant response rating (0 to 100 scale),"[11]; Preemergence, 31 g ai/ha",50
same,Plant response rating (0 to 100 scale),"[11]; Preemergence, 62 g ai/ha",60
same,Plant response rating (0 to 100 scale),"[11]; Preemergence, 125 g ai/ha",60
same,Plant response rating (0 to 100 scale),"[11]; Preemergence, 250 g ai/ha",60
same,Plant response rating (0 to 100 scale),"[11]; Preemergence, 500 g ai/ha",90
same,Plant response rating (0 to 100 scale),"[12]; Postemergence, 31 g ai/ha",0
same,Plant response rating (0 to 100 scale),"[12]; Postemergence, 62 g ai/ha",30
same,Plant response rating (0 to 100 scale),"[12]; Postemergence, 125 g ai/ha",50
same,Plant response rating (0 to 100 scale),"[12]; Postemergence, 250 g ai/ha",50
same,Plant response rating (0 to 100 scale),"[12]; Postemergence, 500 g ai/ha",70
same,Plant response rating (0 to 100 scale),"[12]; Preemergence, 31 g ai/ha",50
same,Plant response rating (0 to 100 scale),"[12]; Preemergence, 62 g ai/ha",60
same,Plant response rating (0 to 100 scale),"[12]; Preemergence, 125 g ai/ha",60
same,Plant response rating (0 to 100 scale),"[12]; Preemergence, 250 g ai/ha",90
same,Plant response rating (0 to 100 scale),"[12]; Preemergence, 500 g ai/ha",100
same,Plant response rating (0 to 100 scale),"[13]; Postemergence, 31 g ai/ha",20
same,Plant response rating (0 to 100 scale),"[13]; Postemergence, 62 g ai/ha",0
same,Plant response rating (0 to 100 scale),"[13]; Postemergence, 125 g ai/ha",0
same,Plant response rating (0 to 100 scale),"[13]; Postemergence, 250 g ai/ha",0
same,Plant response rating (0 to 100 scale),"[13]; Postemergence, 500 g ai/ha",30
same,Plant response rating (0 to 100 scale),"[13]; Preemergence, 31 g ai/ha",0
same,Plant response rating (0 to 100 scale),"[13]; Preemergence, 62 g ai/ha",30
same,Plant response rating (0 to 100 scale),"[13]; Preemergence, 125 g ai/ha",30
same,Plant response rating (0 to 100 scale),"[13]; Preemergence, 250 g ai/ha",40
same,Plant response rating (0 to 100 scale),"[13]; Preemergence, 500 g ai/ha",80
same,Plant response rating (0 to 100 scale),"[14]; Postemergence, 31 g ai/ha",0
same,Plant response rating (0 to 100 scale),"[14]; Postemergence, 62 g ai/ha",20
same,Plant response rating (0 to 100 scale),"[14]; Postemergence, 125 g ai/ha",40
same,Plant response rating (0 to 100 scale),"[14]; Postemergence, 250 g ai/ha",50
same,Plant response rating (0 to 100 scale),"[14]; Postemergence, 500 g ai/ha",70
same,Plant response rating (0 to 100 scale),"[14]; Preemergence, 31 g ai/ha",10
same,Plant response rating (0 to 100 scale),"[14]; Preemergence, 62 g ai/ha",40
same,Plant response rating (0 to 100 scale),"[14]; Preemergence, 125 g ai/ha",50
same,Plant response rating (0 to 100 scale),"[14]; Preemergence, 250 g ai/ha",80
same,Plant response rating (0 to 100 scale),"[14]; Preemergence, 500 g ai/ha",90
